Assay results from patent publication US20160272613A1, “Pyridazinone Derivatives and their use as Herbicides” (BAYER CROPSCIENCE AKTIENGESELLSCHAFT, priority 2013, published 2016).

Columns and labels:
Assay type in all cases: in vivo
Abutilon theophrasti [1] = experiment: Pre-emergence herbicidal action against harmful plants; conditions: 320 g/ha, visual score after 3 weeks vs untreated controls
From the text: (§1) Seeds of monocotyledonous and dicotyledonous weed plants and crop plants are laid out in wood-fiber pots in sandy loam and covered with soil. The compounds of the invention, formulated in the form of wettable powders (WP) or as emulsion concentrates (EC), are then applied to the surface of the covering soil in the form of an aqueous suspension or emulsion at a water application rate equating to 600 to 800 l/ha, with addition of 0.2% wetting agent. After the treatment, the pots are placed in a greenhouse and kept under good growth conditions for the trial plants. The damage to the trial plants is scored visually after a trial duration of 3 weeks by comparison with untreated controls (herbicidal activity in percent (%): 100% efficacy=the plants have died, 0% efficacy=like control plants). In this trial, for example, compound no.

Stellaria media [2] = experiment: as above; conditions: 320 g/ha, visual score after 3 weeks vs untreated controls
From the text: as §1

Viola tricolor [3] = experiment: as above; conditions: 320 g/ha, visual score after 3 weeks vs untreated controls
From the text: as §1

Ipomoea purpurea [4] = experiment: as above; conditions: 320 g/ha, visual score after 3 weeks vs untreated controls
From the text: as §1

Amaranthus retroflexus = experiment: as above; conditions: 320 g/ha, visual score after 3 weeks vs untreated controls
From the text: as §1

Veronica persica [5] = experiment: as above; conditions: 320 g/ha, visual score after 3 weeks vs untreated controls
From the text: as §1

Cyperus esculentus = experiment: as above; conditions: 320 g/ha, visual score after 3 weeks vs untreated controls
From the text: as §1

Abutilon theophrasti [6] = experiment: Post-emergence herbicidal action against harmful plants; conditions: 80 g/ha, visual score after about 3 weeks vs untreated controls
Method: (§2) Seeds of monocotyledonous and dicotyledonous weed and crop plants are laid out in sandy loam in wood-fiber pots, covered with soil and cultivated in a greenhouse under good growth conditions. 2 to 3 weeks after sowing, the trial plants are treated at the one-leaf stage. The compounds of the invention, formulated in the form of wettable powders (WP) or as emulsion concentrates (EC), are then sprayed onto the green parts of the plants in the form of an aqueous suspension or emulsion at a water application rate equating to 600 to 800 I/ha, with addition of 0.2% wetting agent. After the trial plants have been left to stand in a greenhouse under optimal growth conditions for about 3 weeks, the efficacy of the formulations is scored visually in comparison to untreated controls (herbicidal action in percent (%): 100% efficacy=the plants have died, 0% efficacy=like control plants). In this trial, for example, compound no.

Stellaria media [7] = experiment: as above; conditions: 80 g/ha, visual score after about 3 weeks vs untreated controls
Method: as §2

Viola tricolor [8] = experiment: as above; conditions: 80 g/ha, visual score after about 3 weeks vs untreated controls
Method: as §2

Ipomoea purpurea [9] = experiment: as above; conditions: 80 g/ha, visual score after about 3 weeks vs untreated controls
Method: as §2

Veronica persica [10] = experiment: as above; conditions: 80 g/ha, visual score after about 3 weeks vs untreated controls
Method: as §2

Cn1ncc(-c2ccc(C(F)(F)F)c(=O)n2C)c(O)c1=O [1-4, 4-hydroxy-2-methyl-5-(1-methyl-3-(trifluoromethyl)pyrid-2-on-6-yl)-pyridazin-3-one]
at least 80%: herbicidal activity in percent (efficacy) (Abutilon theophrasti [1]) | herbicidal activity in percent (efficacy) (Stellaria media [2]) | herbicidal activity in percent (efficacy) (Viola tricolor [3]) | herbicidal activity in percent (efficacy) (Ipomoea purpurea [4]) | herbicidal activity in percent (efficacy) (Amaranthus retroflexus) | herbicidal activity in percent (efficacy) (Veronica persica [5]) | herbicidal activity in percent (efficacy) (Cyperus esculentus) | herbicidal action in percent (efficacy) (Abutilon theophrasti [6]) | herbicidal action in percent (efficacy) (Stellaria media [7]) | herbicidal action in percent (efficacy) (Viola tricolor [8]) | herbicidal action in percent (efficacy) (Ipomoea purpurea [9]) | herbicidal action in percent (efficacy) (Veronica persica [10])
